Measured values: article PMC11062922 (Nature Chemical Biology, 2023)
Where two headings read alike, the source gives them in different places.

Legend:
468 kinases = test system: 468 kinases; design: KINOMEScan: unit not given here; conditions: cited from earlier work; for KINOMEScan: published data
[1] = target: T1, endogenous kinases and other proteins enriched by Kinobeads from mixed lysates of K-562, COLO-205, MV-4-11, SK-N-BE(2) and OVCAR-8 (Homo sapiens, UniProt Q15418); test: Kinobeads competition binding profiling, two doses (100 nM and 1 µM); conditions: RSK1(Kin.Dom.1-N-terminal);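 note: inhibitor preincubated 45 min at 4 °C in cell lysate, then bead pulldown. Bound protein quantified by label-free mass spectrometry relative to DMSO vehicle control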
T1 construct: endogenous in cells
T1 sequence (Q15418 whole entry): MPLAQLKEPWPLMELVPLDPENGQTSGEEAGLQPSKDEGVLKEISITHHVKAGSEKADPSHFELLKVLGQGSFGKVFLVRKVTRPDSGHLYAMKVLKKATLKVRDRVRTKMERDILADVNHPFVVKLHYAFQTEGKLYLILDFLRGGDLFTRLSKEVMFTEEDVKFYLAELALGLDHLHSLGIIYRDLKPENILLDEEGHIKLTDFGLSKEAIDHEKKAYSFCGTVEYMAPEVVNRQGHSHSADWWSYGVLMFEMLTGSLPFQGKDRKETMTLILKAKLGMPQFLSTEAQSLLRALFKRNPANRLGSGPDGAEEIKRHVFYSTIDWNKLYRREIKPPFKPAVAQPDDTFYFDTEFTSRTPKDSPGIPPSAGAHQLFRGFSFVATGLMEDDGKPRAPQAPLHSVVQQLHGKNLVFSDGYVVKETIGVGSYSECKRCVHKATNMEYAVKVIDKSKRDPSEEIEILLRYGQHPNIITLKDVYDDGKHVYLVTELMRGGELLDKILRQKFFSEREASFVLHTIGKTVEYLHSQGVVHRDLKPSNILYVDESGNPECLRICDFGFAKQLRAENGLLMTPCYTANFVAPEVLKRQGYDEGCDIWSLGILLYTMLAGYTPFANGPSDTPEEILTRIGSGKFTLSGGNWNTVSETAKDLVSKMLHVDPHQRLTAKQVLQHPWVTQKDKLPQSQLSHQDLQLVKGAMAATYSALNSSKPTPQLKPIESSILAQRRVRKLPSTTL

[2] = target: T2, endogenous kinases and other proteins enriched by Kinobeads from mixed lysates of K-562, COLO-205, MV-4-11, SK-N-BE(2) and OVCAR-8 (Homo sapiens, UniProt O14578); test: as above; conditions: CIT
T2 construct: to maximize the representation of endogenous proteins; endogenous in cells
T2 sequence (O14578 whole entry): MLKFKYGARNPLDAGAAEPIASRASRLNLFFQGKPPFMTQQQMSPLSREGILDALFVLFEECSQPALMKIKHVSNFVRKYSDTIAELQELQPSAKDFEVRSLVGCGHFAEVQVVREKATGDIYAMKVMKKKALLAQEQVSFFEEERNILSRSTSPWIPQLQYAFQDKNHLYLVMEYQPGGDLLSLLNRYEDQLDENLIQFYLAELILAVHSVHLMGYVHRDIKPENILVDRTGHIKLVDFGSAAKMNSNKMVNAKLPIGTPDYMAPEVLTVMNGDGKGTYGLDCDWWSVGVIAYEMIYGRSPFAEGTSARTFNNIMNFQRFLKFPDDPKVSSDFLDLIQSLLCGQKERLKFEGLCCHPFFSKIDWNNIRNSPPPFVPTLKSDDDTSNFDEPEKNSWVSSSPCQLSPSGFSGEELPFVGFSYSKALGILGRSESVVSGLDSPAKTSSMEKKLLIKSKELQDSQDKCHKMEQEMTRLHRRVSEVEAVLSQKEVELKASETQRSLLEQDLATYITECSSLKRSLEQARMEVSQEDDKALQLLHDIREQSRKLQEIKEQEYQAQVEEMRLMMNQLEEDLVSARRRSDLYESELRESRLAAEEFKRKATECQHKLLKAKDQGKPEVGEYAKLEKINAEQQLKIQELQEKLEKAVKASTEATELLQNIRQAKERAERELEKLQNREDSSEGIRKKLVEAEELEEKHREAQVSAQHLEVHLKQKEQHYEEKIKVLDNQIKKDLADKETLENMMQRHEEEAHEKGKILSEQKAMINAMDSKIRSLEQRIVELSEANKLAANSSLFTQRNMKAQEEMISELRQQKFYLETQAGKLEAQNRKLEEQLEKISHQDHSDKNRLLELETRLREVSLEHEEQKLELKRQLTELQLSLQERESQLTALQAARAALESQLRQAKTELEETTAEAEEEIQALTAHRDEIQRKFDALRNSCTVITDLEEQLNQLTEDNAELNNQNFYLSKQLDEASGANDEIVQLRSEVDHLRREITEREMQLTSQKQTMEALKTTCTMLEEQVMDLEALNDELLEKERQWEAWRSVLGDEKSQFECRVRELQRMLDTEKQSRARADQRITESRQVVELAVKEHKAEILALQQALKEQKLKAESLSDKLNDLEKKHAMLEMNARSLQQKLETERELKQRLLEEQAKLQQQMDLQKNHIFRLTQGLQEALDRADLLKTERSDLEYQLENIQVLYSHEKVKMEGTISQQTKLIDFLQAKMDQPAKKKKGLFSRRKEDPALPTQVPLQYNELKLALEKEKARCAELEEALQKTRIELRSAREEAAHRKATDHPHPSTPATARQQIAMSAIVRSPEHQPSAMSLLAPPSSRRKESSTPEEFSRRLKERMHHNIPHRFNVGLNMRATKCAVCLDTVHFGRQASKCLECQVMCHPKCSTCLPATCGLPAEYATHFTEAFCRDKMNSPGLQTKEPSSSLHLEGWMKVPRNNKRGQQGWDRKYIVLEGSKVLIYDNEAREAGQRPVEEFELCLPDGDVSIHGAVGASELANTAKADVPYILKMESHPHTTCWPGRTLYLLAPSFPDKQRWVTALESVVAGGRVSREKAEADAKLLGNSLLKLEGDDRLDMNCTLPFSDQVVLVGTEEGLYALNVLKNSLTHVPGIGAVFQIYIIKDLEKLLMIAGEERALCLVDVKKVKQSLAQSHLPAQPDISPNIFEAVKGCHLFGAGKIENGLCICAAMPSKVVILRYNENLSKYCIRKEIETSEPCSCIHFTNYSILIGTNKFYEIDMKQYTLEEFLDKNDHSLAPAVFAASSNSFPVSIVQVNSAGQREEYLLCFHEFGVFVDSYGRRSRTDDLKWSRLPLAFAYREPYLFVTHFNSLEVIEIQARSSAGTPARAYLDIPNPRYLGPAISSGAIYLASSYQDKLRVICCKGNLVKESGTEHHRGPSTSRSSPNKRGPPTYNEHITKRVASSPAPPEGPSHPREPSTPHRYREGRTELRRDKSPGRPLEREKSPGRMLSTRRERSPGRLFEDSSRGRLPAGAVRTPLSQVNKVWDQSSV

## COc1cc(Nc2ncc3c(C)nc(-c4cc5ccccc5[nH]4)n3n2)cc(OC)c1OC [GW869516X]
468 kinases; broad KINOMEscan assay covering 468 kinases, ref a previous study
  number of kinases with more than 70% inhibition of binding: 33
468 kinases; kinase AMPK-alpha1
  KINOMEScan: 89
468 kinases; kinase AMPK-alpha2
  KINOMEScan: 61
468 kinases; kinase BLK
  KINOMEScan: 60
468 kinases; kinase CIT
  KINOMEScan: 100
468 kinases; kinase CLK1
  KINOMEScan: 88
468 kinases; kinase CLK2
  KINOMEScan: 75
468 kinases; kinase CSNK2A1
  KINOMEScan: 96.4
468 kinases; kinase CSNK2A2
  KINOMEScan: 99.7
468 kinases; kinase DDR1
  KINOMEScan: 52
468 kinases; kinase DDR2
  KINOMEScan: 52
468 kinases; kinase DYRK1A
  KINOMEScan: 85
468 kinases; kinase DYRK1B
  KINOMEScan: 81
468 kinases; kinase EPHB1
  KINOMEScan: 58
468 kinases; kinase FLT3-autoinhibited
  KINOMEScan: 75
468 kinases; kinase FLT3
  KINOMEScan: 96.3
468 kinases; kinase GCN2(Kin.Dom.2,S808G)
  KINOMEScan: 88
468 kinases; kinase HIPK1
  KINOMEScan: 79
468 kinases; kinase INSRR
  KINOMEScan: 53
468 kinases; kinase JAK1(JH2domain-pseudokinase)
  KINOMEScan: 98.5
468 kinases; kinase JAK2(JH1domain-catalytic)
  KINOMEScan: 54
468 kinases; kinase KIT
  KINOMEScan: 72
468 kinases; kinase LCK
  KINOMEScan: 71
468 kinases; kinase MAP3K4
  KINOMEScan: 52
468 kinases; kinase MEK5
  KINOMEScan: 78
468 kinases; kinase MERTK
  KINOMEScan: 56
468 kinases; kinase MLK1
  KINOMEScan: 93.8
468 kinases; kinase MLK2
  KINOMEScan: 89
468 kinases; kinase MLK3
  KINOMEScan: 87
468 kinases; kinase NEK2
  KINOMEScan: 70
468 kinases; kinase NEK3
  KINOMEScan: 89
468 kinases; kinase NEK5
  KINOMEScan: 99
468 kinases; kinase NEK6
  KINOMEScan: 99.6
468 kinases; kinase NEK7
  KINOMEScan: 99.7
468 kinases; kinase NEK9
  KINOMEScan: 90
468 kinases; kinase NEK11
  KINOMEScan: 86
468 kinases; kinase PAK3
  KINOMEScan: 69
468 kinases; kinase PIP5K1C
  KINOMEScan: 89
468 kinases; kinase PIP5K2C
  KINOMEScan: 90.3
468 kinases; kinase PKAC-beta
  KINOMEScan: 51
468 kinases; kinase RSK1(Kin.Dom.1-N-terminal)
  KINOMEScan: 91.7
468 kinases; kinase RSK3(Kin.Dom.1-N-terminal)
  KINOMEScan: 66
468 kinases; kinase SLK
  KINOMEScan: 63
468 kinases; kinase SRC
  KINOMEScan: 90.1
468 kinases; kinase STK16
  KINOMEScan: 86
468 kinases; kinase SYK
  KINOMEScan: 53
468 kinases; kinase TBK1
  KINOMEScan: 58
468 kinases; kinase TYK2(JH2domain-pseudokinase)
  KINOMEScan: 82
468 kinases; kinase ULK2
  KINOMEScan: 51
468 kinases; kinase WEE2
  KINOMEScan: 85
[1]
  Kinobeads Data: no target
[2]
  Kinobeads Data: no target
